The source of these data is EP0938471B1, “THE PREPARATION AND USE OF ORTHO-SULFONAMIDO ARYL HYDROXAMIC ACIDS AS MATRIX METALLOPROTEINASE AND TACE INHIBITORS” (priority 1996, dated 1998).

Like-named read-outs stand apart in the source and are kept apart here.

What all share (type): biochemical
One experiment addresses T1, MMP-1 (Homo sapiens, UniProt P03956).
T1 sequence (P03956 100-469): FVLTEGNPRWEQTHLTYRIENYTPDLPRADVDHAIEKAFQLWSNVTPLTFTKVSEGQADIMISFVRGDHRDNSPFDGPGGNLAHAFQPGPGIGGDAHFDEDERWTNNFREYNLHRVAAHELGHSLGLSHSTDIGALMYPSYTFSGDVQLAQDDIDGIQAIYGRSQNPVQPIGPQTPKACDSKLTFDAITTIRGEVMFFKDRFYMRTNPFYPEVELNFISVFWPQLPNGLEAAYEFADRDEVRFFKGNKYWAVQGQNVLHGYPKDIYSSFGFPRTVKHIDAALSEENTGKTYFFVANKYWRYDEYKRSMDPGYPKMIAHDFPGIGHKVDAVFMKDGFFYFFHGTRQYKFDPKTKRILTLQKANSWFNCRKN
Briefly: MMP-1 inhibition (thiopeptide or fluorescent peptide substrate assay).

A further experiment has as its target TACE (Homo sapiens, UniProt P78536). Put plainly: TACE inhibition (fluorescent peptidyl substrate). The settings on record: for inhibition at 1 µM: at 1µM concentration.
The target of a further experiment is MMP-9 (Homo sapiens, UniProt P14780). Briefly: MMP-9 inhibition (thiopeptide or fluorescent peptide substrate assay).
MMP-9, sequence (P14780 94-707): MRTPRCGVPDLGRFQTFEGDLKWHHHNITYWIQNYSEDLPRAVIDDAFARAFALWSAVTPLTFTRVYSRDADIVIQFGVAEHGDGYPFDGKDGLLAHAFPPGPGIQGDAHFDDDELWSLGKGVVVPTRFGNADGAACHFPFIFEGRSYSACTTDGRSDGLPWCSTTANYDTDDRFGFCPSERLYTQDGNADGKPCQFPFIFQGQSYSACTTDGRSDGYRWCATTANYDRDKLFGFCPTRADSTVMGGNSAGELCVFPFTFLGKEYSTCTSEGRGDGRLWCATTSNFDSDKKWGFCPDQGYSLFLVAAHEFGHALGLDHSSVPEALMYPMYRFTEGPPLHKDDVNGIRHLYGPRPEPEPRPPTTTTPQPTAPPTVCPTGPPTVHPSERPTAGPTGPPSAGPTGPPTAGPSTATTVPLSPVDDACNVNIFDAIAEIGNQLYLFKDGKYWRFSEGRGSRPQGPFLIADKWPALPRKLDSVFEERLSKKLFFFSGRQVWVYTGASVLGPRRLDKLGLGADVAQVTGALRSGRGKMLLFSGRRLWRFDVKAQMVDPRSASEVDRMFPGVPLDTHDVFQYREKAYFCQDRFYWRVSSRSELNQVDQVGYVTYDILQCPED
The next experiment addresses MMP-13 (Homo sapiens, UniProt P45452). Put plainly: MMP-13 inhibition (thiopeptide or fluorescent peptide substrate assay).

TACE, sequence (P78536 215-824): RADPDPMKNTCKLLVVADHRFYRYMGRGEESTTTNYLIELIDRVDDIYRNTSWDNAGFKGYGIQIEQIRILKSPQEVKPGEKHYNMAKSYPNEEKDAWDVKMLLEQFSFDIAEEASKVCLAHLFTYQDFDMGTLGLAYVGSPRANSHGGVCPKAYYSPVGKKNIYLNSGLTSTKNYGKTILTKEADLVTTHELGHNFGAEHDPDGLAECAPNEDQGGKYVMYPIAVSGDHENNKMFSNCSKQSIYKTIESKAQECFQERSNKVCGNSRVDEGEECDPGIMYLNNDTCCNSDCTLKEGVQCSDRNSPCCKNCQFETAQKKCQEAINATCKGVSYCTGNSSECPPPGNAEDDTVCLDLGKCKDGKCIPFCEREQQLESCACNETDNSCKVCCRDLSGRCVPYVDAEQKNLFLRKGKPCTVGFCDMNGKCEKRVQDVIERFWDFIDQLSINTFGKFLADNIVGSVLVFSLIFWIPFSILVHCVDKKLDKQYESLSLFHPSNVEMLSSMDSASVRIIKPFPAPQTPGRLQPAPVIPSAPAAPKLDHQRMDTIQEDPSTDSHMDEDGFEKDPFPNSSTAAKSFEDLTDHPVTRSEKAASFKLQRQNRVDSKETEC
Procedure for MMP-13: (§1) The enzyme activity is measured by the rate of the color increase. The thiopeptide substrate is made up fresh as a 20 mM stock in 100% DMSO and the DTNB is dissolved in 100% DMSO as a 100 mM stock and stored in the dark at room temperature. Both the substrate and DTNB are diluted together to 1 mM with substrate buffer (50 mM HEPES pH 7.5, 5 mM CaCl2) before use. […] Alternatively, a fluorescent peptide substrate is used. In this assay, the peptide substrate contains a fluorescent group and a quenching group. Upon cleavage of the substrate by an MMP, the fluorescence that is generated is quantitated on the fluorescence plate reader. […] The substrate is dissolved in methanol and stored frozen in 1 mM aliquots. For the assay, substrate and enzymes are diluted in HCBC buffer to the desired concentrations. Compounds are added to the 96 well plate containing enzyme and the reaction is started by the addition of substrate. […] For either the thiopeptide or fluorescent peptide assays, the slope of the line is calculated and represents the reaction rate. […] The mean (x±sem) of the control rate is calculated and compared for statistical significance (p<0.05) with drug-treated rates using Dunnett's multiple comparison test.
Procedure for MMP-9: as §1

For the compound `COc1ccc(S(=O)(=O)N(Cc2cccnc2)c2c(C(=O)NO)cc(C)cc2-c2ccco2)cc1` [Example 186, 3-Furan-2-yl-N-hydroxy-2-[(4-methoxybenzenesulfonyl)-pyridin-3-ylmethylamino]-5-methyl-benzamide], the IC50 (commonly the midpoint of a concentration-inhibition curve) amounted to 37 nM on MMP-1 (read-out: MMP-1 IC50), 61 nM against TACE, 13 nM on MMP-9 (read-out: MMP-9 IC50) and 1.4 nM against MMP-13.

As for `CCN(CC)Cc1cccc(C(=O)NO)c1N(C)S(=O)(=O)c1ccc(OC)cc1` [Example 191, 3-Diethylaminomethyl-N-hydroxy-2-[(4-methoxybenzenesulfonyl)-methylamino]benzamide], the half-inhibitory concentration (IC50) at MMP-1 (read-out: MMP-1 IC50) was 1240 nM; at TACE (read-out: TACE IC50) it was 210 nM; at MMP-9 (read-out: MMP-9 IC50), 10 nM; at MMP-13 (read-out: MMP-13 IC50), 67 nM.

In the case of `COc1ccc(S(=O)(=O)N(Cc2ccccc2)c2c(OC(C)(C)C(=O)NO)cccc2C(=O)NO)cc1` [Example 197], the IC50 at MMP-1 (read-out: MMP-1 IC50) was 711 nM; on MMP-9 (read-out: MMP-9 IC50), 5 nM; on MMP-13 (read-out: MMP-13 IC50) it was 6 nM. Besides, at TACE, at 1 µM the inhibition was 32%.

`COc1ccc(S(=O)(=O)N(Cc2ccccc2)c2c(Br)cccc2C(=O)NO)cc1` [Example 201, 3-Bromo-2-[benzyl-(4-methoxybenzenesulfonyl)amino]-N-hydroxy-benzamide]: the IC50 at MMP-1 (read-out: MMP-1 IC50) stood at 104 nM; at TACE (read-out: TACE IC50), 1000 nM; on MMP-9 (read-out: MMP-9 IC50), 11 nM; on MMP-13 (read-out: MMP-13 IC50), 27 nM.

Take `CCCCCCCCN(C)C(=O)C=Cc1cc(C)c(N(C)S(=O)(=O)c2ccc(OC)cc2)c(C(=O)NO)c1` [Example 207, N-Hydroxy-2-[(4-methoxy-benzenesulfonyl)-methyl-amino]-3-methyl-5-[2-(methyl-octyl-carbamoyl)-vinyl]-benzamide]: the IC50 turned out to be 1120 nM on MMP-1 (read-out: MMP-1 IC50), 375 nM at TACE (read-out: TACE IC50), 2 nM at MMP-9 (read-out: MMP-9 IC50) and 2.5 nM at MMP-13 (read-out: MMP-13 IC50).

For `CCCCCCCCN(C)C(=O)CCc1cc(C)c(N(C)S(=O)(=O)c2ccc(OC)cc2)c(C(=O)NO)c1` [Example 212, N-Hydroxy-2-[(4-methoxy-benzenesulfonyl)-methyl-amino]-3-methyl-5-[2-(methyl-octyl-carbamoyl)-ethyl]-benzamide], the IC50 at MMP-1 (read-out: MMP-1 IC50) was found to be 415 nM; on TACE (read-out: TACE IC50), 314 nM; at MMP-9 (read-out: MMP-9 IC50) it was 5.2 nM; at MMP-13 (read-out: MMP-13 IC50), 11 nM.

For the compound `COc1ccc(S(=O)(=O)N(C)c2c(C)cc(C=CC(=O)N(C)C)cc2C(=O)O)cc1` [Example 214, 5-(2-Dimethylcarbamoyl-vinyl)-2-[(4-methoxy-benzenesulfonyl)-methyl-amino]-3-methyl-benzoic acid], the IC50 at MMP-1 stood at 423 nM; on TACE, 232 nM; against MMP-9, 6.4 nM; against MMP-13, 19 nM.

Turning to `CCN(Cc1ccncc1)C(=O)C=Cc1cc(C)c(N(C)S(=O)(=O)c2ccc(OC)cc2)c(C(=O)NO)c1` [Example 219, 5-[2-(Ethyl-pyridin-4-ylmethyl-carbamoyl)-vinyl]-N-hydroxy-2-[(4-methoxy-benzenesulfonyl)-methyl-amino]-3-methyl-benzamide], the IC50 at MMP-1 (read-out: MMP-1 IC50) came to 290 nM; at TACE (read-out: TACE IC50) it was 548 nM; at MMP-9 (read-out: MMP-9 IC50), 6.7 nM; on MMP-13 (read-out: MMP-13 IC50), 5.8 nM.

For the compound `CCCCCCCCN(C)C(=O)C=Cc1cc(C)c(N(Cc2cccnc2)S(=O)(=O)c2ccc(OC)cc2)c(C(=O)NO)c1` [Example 224, N-Hydroxy-2-[(4-methoxy-benzenesulfonyl)-pyridin-3-ylmethyl-amino]-3-methyl-5-[2-(methyl-octyl-carbamoyl)-vinyl]-benzamide], the IC50 worked out at 957 nM on MMP-1 (read-out: MMP-1 IC50), 715 nM on TACE (read-out: TACE IC50), 11 nM on MMP-9 (read-out: MMP-9 IC50) and 14 nM at MMP-13 (read-out: MMP-13 IC50).

Turning to `COc1ccc(S(=O)(=O)N(Cc2cccnc2)c2c(C)cc(C=CC(=O)N(C)C)cc2C(=O)NO)cc1` [Example 227, 5-(2-Dimethylcarbamoyl-vinyl)-N-hydroxy-2-[(4-methoxy-benzenesulfonyl)-pyridin-3-ylmethyl-amino]-3-methyl-benzamide], the 50% inhibitory concentration (IC50) on MMP-1 (read-out: MMP-1 IC50) is 193 nM; on TACE (read-out: TACE IC50), 446 nM; at MMP-9 (read-out: MMP-9 IC50), 3.1 nM; on MMP-13 (read-out: MMP-13 IC50) it was 4.1 nM.

On to `CCN(C(=O)C=Cc1cc(C)c(N(Cc2cccnc2)S(=O)(=O)c2ccc(OC)cc2)c(C(=O)NO)c1)c1ccccc1` [Example 230, 5-[2-(Ethyl-phenyl-carbamoyl)-vinyl]-N-hydroxy-2-[(4-methoxy-benzenesulfonyl)-pyridin-3-ylmethyl-amino]-3-methyl-benzamide], for which the IC50 at MMP-1 (read-out: MMP-1 IC50) stood at 20 nM; at MMP-9 (read-out: MMP-9 IC50) it was 2.4 nM; at MMP-13 (read-out: MMP-13 IC50) it was 1.9 nM. Besides, testing at 1 µM against TACE gave an inhibition of 47%.

For `C=CCN(CC=C)C(=O)C=Cc1cc(C)c(N(Cc2cccnc2)S(=O)(=O)c2ccc(OC)cc2)c(C(=O)NO)c1` [Example 233, 5-(2-Diallylcarbamoyl-vinyl)-N-hydroxy-2-[(4-methoxy-benzenesulfonyl)-pyridin-3-ylmethyl-amino]-3-methyl-benzamide], the IC50 at MMP-1 (read-out: MMP-1 IC50) was 32 nM; at TACE (read-out: TACE IC50) it was 450 nM; on MMP-9 (read-out: MMP-9 IC50), 2.3 nM; at MMP-13 (read-out: MMP-13 IC50), 1.8 nM.

In the case of `COc1ccc(S(=O)(=O)N(Cc2cccnc2)c2c(C)cc(C=CC(=O)N3CCOCC3)cc2C(=O)NO)cc1` [Example 240], the IC50 on MMP-1 (read-out: MMP-1 IC50) is 86 nM; at TACE (read-out: TACE IC50) it was 548 nM; on MMP-9 (read-out: MMP-9 IC50) it was 3.5 nM; at MMP-13 (read-out: MMP-13 IC50) it was 1.6 nM.

For `COc1ccc(S(=O)(=O)N(Cc2cccnc2)c2c(C)cc(-c3ccccc3C=NO)cc2C(=O)NO)cc1` [Example 243, 2'-(Hydroxyimino-methyl)-4-[(4-methoxy-benzenesulfonyl)-pyridin-3-ylmethyl-amino]-5-methyl-biphenyl-3-carboxylic acid hydroxyamide], the IC50 at MMP-1 (read-out: MMP-1 IC50) stood at 528 nM; on TACE (read-out: TACE IC50), 66 nM; at MMP-9 (read-out: MMP-9 IC50), 6.6 nM; at MMP-13 (read-out: MMP-13 IC50) it was 3.1 nM.

As for `COc1ccc(S(=O)(=O)N(Cc2cccnc2)c2c(C)cc(-c3cccc(C=NO)c3)cc2C(=O)NO)cc1` [Example 246, 3'-(Hydroxyimino-methyl)-4-[(4-methoxy-benzenesulfonyl)-pyridin-3-ylmethyl-amino]-5-methyl-biphenyl-3-carboxylic acid hydroxyamide], the IC50 on MMP-1 (read-out: MMP-1 IC50) turned out to be 106 nM; at TACE (read-out: TACE IC50) it was 56 nM; at MMP-9 (read-out: MMP-9 IC50), 6 nM; at MMP-13 (read-out: MMP-13 IC50), 3.6 nM.

As for `COc1ccc(S(=O)(=O)N(Cc2cccnc2)c2c(C)cc(-c3ccc(C=NO)cc3)cc2C(=O)NO)cc1` [Example 249, 4'-(Hydroxyimino-methyl)-4-[(4-methoxy-benzenesulfonyl)-pyridin-3-ylmethyl-amino]-5-methyl-biphenyl-3-carboxylic acid hydroxyamide], the IC50 on MMP-1 (read-out: MMP-1 IC50) was 231 nM; on TACE (read-out: TACE IC50), 100 nM; at MMP-9 (read-out: MMP-9 IC50), 2.8 nM; on MMP-13 (read-out: MMP-13 IC50) it was 6 nM.

`COc1ccc(S(=O)(=O)N(Cc2cccnc2)c2c(C)cc(-c3ccccc3C(F)(F)F)cc2C(=O)NO)cc1` [Example 252, 4-[(4-Methoxy-benzenesulfonyl)-pyridin-3-ylmethyl-amino]-5-methyl-2'-trifluoromethyl-biphenyl-3-carboxylic acid hydroxyamide]: the IC50 turned out to be 652 nM at MMP-1 (read-out: MMP-1 IC50), 346 nM on TACE (read-out: TACE IC50), 15 nM at MMP-9 (read-out: MMP-9 IC50) and 10 nM at MMP-13 (read-out: MMP-13 IC50).

For `COc1ccc(S(=O)(=O)N(Cc2cccnc2)c2c(C)cc(-c3ccco3)cc2C(=O)NO)cc1` [Example 255, 5-Furan-2-yl-N-hydroxy-2-[(4-methoxy-benzenesulfonyl)-pyridin-3-ylmethyl-amino]-3-methyl-benzamide], the IC50 is 48 nM at MMP-1 (read-out: MMP-1 IC50), 65 nM on TACE (read-out: TACE IC50), 7.1 nM at MMP-9 (read-out: MMP-9 IC50) and 3.2 nM on MMP-13 (read-out: MMP-13 IC50).

For the compound `COc1ccc(S(=O)(=O)N(Cc2cccnc2)c2c(C)cc(-c3sccc3C=NO)cc2C(=O)NO)cc1` [Example 258, N-Hydroxy-5-[3-(hydroxyimino-methyl)-thiophen-2-yl]-2-[(4-methoxy-benzenesulfonyl)-pyridin-3-ylmethyl-amino]-3-methyl-benzamide], the IC50 on MMP-1 (read-out: MMP-1 IC50) was found to be 169 nM; at TACE (read-out: TACE IC50), 110 nM; on MMP-9 (read-out: MMP-9 IC50) it was 8 nM; at MMP-13 (read-out: MMP-13 IC50), 7 nM.

As to `COc1ccc(S(=O)(=O)N(Cc2cccnc2)c2c(C)cc(-c3ccc(Cl)s3)cc2C(=O)NO)cc1` [Example 261, 5-(5-Chloro-thiophen-2-yl)-N-hydroxy-2-[(4-methoxy-benzenesulfonyl)-pyridin-3-ylmethyl-amino]-3-methyl-benzamide], the IC50 on MMP-1 (read-out: MMP-1 IC50) amounted to 247 nM; on TACE (read-out: TACE IC50), 54 nM; at MMP-9 (read-out: MMP-9 IC50) it was 1.3 nM; on MMP-13 (read-out: MMP-13 IC50), 2.8 nM.

As for `COc1ccc(S(=O)(=O)N(Cc2cccnc2)c2c(C)cc(-c3ccc(C(C)=O)s3)cc2C(=O)NO)cc1` [Example 264, 5-(5-Acetyl-thiophen-2-yl)-N-hydroxy-2-[(4-methoxy-benzenesulfonyl)-pyridin-3-ylmethyl-amino]-3-methyl-benzamide], the IC50 came out at 159 nM on MMP-1 (read-out: MMP-1 IC50), 77 nM at TACE (read-out: TACE IC50), 3.7 nM at MMP-9 (read-out: MMP-9 IC50) and 6.4 nM at MMP-13 (read-out: MMP-13 IC50).

As to `C=Cc1cc(C)c(N(Cc2ccccc2)S(=O)(=O)c2ccc(OC)cc2)c(C(=O)NO)c1` [Example 267, 2-[Benzyl-(4-methoxy-benzenesulfonyl)-amino]-N-hydroxy-3-methyl-5-vinyl-benzamide], the IC50 at MMP-1 (read-out: MMP-1 IC50) was 59 nM; at TACE (read-out: TACE IC50), 136 nM; on MMP-9 (read-out: MMP-9 IC50) it was 3 nM; at MMP-13 (read-out: MMP-13 IC50), 13 nM.
